According to ChEMBL document CHEMBL3865807, “Syntheses and photodynamic activity of some glucose-conjugated BODIPY dyes” (Eur J Med Chem, 2016):

Experiment: Drug uptake in human L-132 cells assessed as mean fluorescence intensity at 2.5 uM after 4 hrs by flow cytometry (reference value: 4.6 +/- 1.2)
Format: ADME, cell-based
Settings: l132, 4 h

For `CCC1=C(C)C2=C(C)c3c(C)c(CC)c(C)n3[B-](F)(F)[N+]2=C1/C=C/c1ccc(O[C@H]2O[C@H](CO)[C@@H](O)[C@H](O)[C@H]2O)cc1`, the Flu intensity was 56.8.
